Measured values published in the supplement of paper PMC9663587.

Assays:
ABT-737 = compound: CN(C)CC[C@H](CSc1ccccc1)Nc1ccc(S(=O)(=O)NC(=O)c2ccc(N3CCN(Cc4ccccc4-c4ccc(Cl)cc4)CC3)cc2)cc1[N+](=O)[O-] [ABT-737]
Saracatinib/AZD0530 = compound: CN1CCN(CCOc2cc(OC3CCOCC3)c3c(Nc4c(Cl)ccc5c4OCO5)ncnc3c2)CC1 [Saracatinib/AZD0530]
Flavopiridol [1] = compound: T1, CN1CC[C@H](c2c(O)cc(O)c3c(=O)cc(-c4ccccc4Cl)oc23)[C@H](O)C1 [Flavopiridol]
[2] = compound: CO[C@@H](C)Cn1c(=O)n(C)c2cnc3ccc(-c4cncc(C(C)(C)O)c4)cc3c21
Taselisib/GDC0032 = compound: Cc1nc(-c2cn3c(n2)-c2ccc(-c4cnn(C(C)(C)C(N)=O)c4)cc2OCC3)n(C(C)C)n1 [Taselisib/GDC0032]
YKL-5-124 = compound: C=CC(=O)Nc1ccc(C(=O)Nc2[nH]nc3c2CN(C(=O)N[C@H](CN(C)C)c2ccccc2)C3(C)C)cc1 [YKL-5-124]; experiment: GR value, 72 h; higher = faster growth (1 = untreated, <0 = killing);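 also: breast cancer and non-malignant breast epithelial lines, nine half-log doses, viable cells counted by Hoechst and LIVE/DEAD dye imaging versus time-zero plates and DMSO controls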
BSJ-03-123 = compound: CC(=O)c1c(C)c2cnc(Nc3ccc(N4CCN(CCOCCOCCOCCNC(=O)COc5cccc6c5C(=O)N(C5CCC(=O)NC5=O)C6=O)CC4)cn3)nc2n(C2CCCC2)c1=O [BSJ-03-123]; experiment: as above
[3] = compound: CC(=O)c1c(C)c2cnc(Nc3ccc(N4CCNCC4)cn3)nc2n(C2CCCC2)c1=O; experiment: as above
[4] = compound: CCN1CCN(Cc2ccc(Nc3ncc(F)c(-c4cc(F)c5nc(C)n(C(C)C)c5c4)n3)nc2)CC1; experiment: as above
Neratinib/HKI272 = compound: CCOc1cc2ncc(C#N)c(Nc3ccc(OCc4ccccn4)c(Cl)c3)c2cc1NC(=O)/C=C/CN(C)C [Neratinib/HKI272]; experiment: as above
[5] = compound: CCc1cnn2c(NCc3ccc[n+]([O-])c3)cc(N3CCCC[C@H]3CCO)nc12; experiment: as above
LEE011/Ribociclib = compound: CN(C)C(=O)c1cc2cnc(Nc3ccc(N4CCNCC4)cn3)nc2n1C1CCCC1 [LEE011/Ribociclib]; experiment: as above
THZ531 = compound: CN(C)C/C=C/C(=O)Nc1ccc(C(=O)N2CCC[C@@H](Nc3ncc(Cl)c(-c4c[nH]c5ccccc45)n3)C2)cc1 [THZ531]; experiment: as above
THZ1 = compound: CN(C)C/C=C/C(=O)Nc1ccc(C(=O)Nc2cccc(Nc3ncc(Cl)c(-c4c[nH]c5ccccc45)n3)c2)cc1 [THZ1]; experiment: as above
Flavopiridol [6] = compound: T1, Flavopiridol; experiment: as above
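For GR50, 72 h in this document: breast cancer and non-malignant breast epithelial cell lines, Deep Dye Drop or Dye Drop imaging, nine half-log doses, GR normalized to time-zero plates and DMSO-only controls.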

EVSAT
GR50, 72 h (ABT-737): > 10 µM
GR50, 72 h (Saracatinib/AZD0530): 2.69 µM
GR50, 72 h (Flavopiridol [1]): 0.369 µM
GR50, 72 h [2]: 0.00155 µM
GR50, 72 h (Taselisib/GDC0032): 0.517 µM
GR value (YKL-5-124; 0.001 µM): 0.327 GR
GR value (YKL-5-124; 0.003162 µM): 0.292 GR
GR value (YKL-5-124; 0.01 µM): 0.215 GR
GR value (YKL-5-124; 0.03162 µM): 0.13 GR
GR value (YKL-5-124; 0.1 µM): 0.0905 GR
GR value (YKL-5-124; 0.3162 µM): 0.0313 GR
GR value (YKL-5-124; 1 µM): 0.019 GR
GR value (YKL-5-124; 3.162 µM): -0.0275 GR
GR value (YKL-5-124; 10 µM): -0.412 GR
GR value (BSJ-03-123; 0.001 µM): 0.994 GR
GR value (BSJ-03-123; 0.003162 µM): 0.961 GR
GR value (BSJ-03-123; 0.01 µM): 0.922 GR
GR value (BSJ-03-123; 0.03162 µM): 0.885 GR
GR value (BSJ-03-123; 0.1 µM): 0.851 GR
GR value (BSJ-03-123; 0.3162 µM): 0.819 GR
GR value (BSJ-03-123; 1 µM): 0.724 GR
GR value (BSJ-03-123; 3.162 µM): 0.67 GR
GR value (BSJ-03-123; 10 µM): 0.0632 GR
GR value ([3]; 0.0003162 µM): 1.02 GR
GR value ([3]; 0.001 µM): 1 GR
GR value ([3]; 0.003162 µM): 0.994 GR
GR value ([3]; 0.01 µM): 0.974 GR
GR value ([3]; 0.03162 µM): 0.863 GR
GR value ([3]; 0.1 µM): 0.792 GR
GR value ([3]; 0.3162 µM): 0.752 GR
GR value ([3]; 1 µM): 0.671 GR
GR value ([3]; 3.162 µM): 0.637 GR
GR value ([4]; 0.001 µM): 0.973 GR
GR value ([4]; 0.003162 µM): 0.947 GR
GR value ([4]; 0.01 µM): 0.933 GR
GR value ([4]; 0.03162 µM): 0.853 GR
GR value ([4]; 0.1 µM): 0.761 GR
GR value ([4]; 0.3162 µM): 0.679 GR
GR value ([4]; 1 µM): 0.521 GR
GR value ([4]; 3.162 µM): 0.393 GR
GR value ([4]; 10 µM): -0.545 GR
GR value (Neratinib/HKI272; 0.0003162 µM): 0.99 GR
GR value (Neratinib/HKI272; 0.001 µM): 1.02 GR
GR value (Neratinib/HKI272; 0.003162 µM): 1.01 GR
GR value (Neratinib/HKI272; 0.01 µM): 0.991 GR
GR value (Neratinib/HKI272; 0.03162 µM): 0.978 GR
GR value (Neratinib/HKI272; 0.1 µM): 0.909 GR
GR value (Neratinib/HKI272; 0.3162 µM): 0.895 GR
GR value (Neratinib/HKI272; 1 µM): 0.822 GR
GR value (Neratinib/HKI272; 3.162 µM): 0.676 GR
GR value ([5]; 0.0001 µM): 0.951 GR
GR value ([5]; 0.0003162 µM): 0.967 GR
GR value ([5]; 0.001 µM): 0.959 GR
GR value ([5]; 0.003162 µM): 0.994 GR
GR value ([5]; 0.01 µM): 1.01 GR
GR value ([5]; 0.03162 µM): 0.299 GR
GR value (LEE011/Ribociclib; 0.001 µM): 0.968 GR
GR value (LEE011/Ribociclib; 0.003162 µM): 0.932 GR
GR value (LEE011/Ribociclib; 0.01 µM): 0.956 GR
GR value (LEE011/Ribociclib; 0.03162 µM): 0.939 GR
GR value (LEE011/Ribociclib; 0.1 µM): 0.901 GR
GR value (LEE011/Ribociclib; 0.3162 µM): 0.821 GR
GR value (LEE011/Ribociclib; 1 µM): 0.862 GR
GR value (LEE011/Ribociclib; 3.162 µM): 0.813 GR
GR value (LEE011/Ribociclib; 10 µM): 0.616 GR
GR value (THZ531; 0.0001 µM): 0.995 GR
GR value (THZ531; 0.0003162 µM): 0.952 GR
GR value (THZ531; 0.001 µM): 1 GR
GR value (THZ531; 0.003162 µM): 1.01 GR
GR value (THZ531; 0.01 µM): 1.07 GR
GR value (THZ531; 0.03162 µM): 1.06 GR
GR value (THZ531; 0.1 µM): 0.745 GR
GR value (THZ531; 0.3162 µM): 0.0467 GR
GR value (THZ1; 0.0001 µM): 1.02 GR
GR value (THZ1; 0.0003162 µM): 0.993 GR
GR value (THZ1; 0.001 µM): 0.991 GR
GR value (THZ1; 0.003162 µM): 0.946 GR
GR value (THZ1; 0.01 µM): 0.975 GR
GR value (THZ1; 0.03162 µM): 0.705 GR
GR value (THZ1; 0.1 µM): 0.232 GR
GR value (THZ1; 0.3162 µM): -0.363 GR
GR value (Flavopiridol [6]; 0.0001 µM): 1.01 GR
GR value (Flavopiridol [6]; 0.0003162 µM): 1.06 GR
GR value (Flavopiridol [6]; 0.001 µM): 1.02 GR
GR value (Flavopiridol [6]; 0.003162 µM): 0.984 GR
GR value (Flavopiridol [6]; 0.01 µM): 0.925 GR
GR value (Flavopiridol [6]; 0.03162 µM): 0.97 GR
GR value (Flavopiridol [6]; 0.1 µM): 0.917 GR
GR value (Flavopiridol [6]; 0.3162 µM): 0.619 GR
GR value (Flavopiridol [6]; 1 µM): -0.514 GR
